PMC6095626, “Screening of the Pathogen Box for inhibitors with dual efficacy against Giardia lamblia and Cryptosporidium parvum” (PLoS Neglected Tropical Diseases, 2018)

Columns and labels:
[1] = system: G. lamblia trophozoites (luciferase expressing, WBC6); assay: microbe, parasite or virus in culture; type: cell-based, Giardia lamblia; conditions: for Giardia (16 uM) Mean % inhibition: initial Pathogen Box screen, single concentration 16 µM, inhibition compared to DMSO wells; for G. lamblia inhibition of parasite growth in the initial screen: 16 μM, 24 hours; for inhibition at 16 µM: Giardia duodenalis, read-out: Giardia (16 uM) Mean % inhibition
Procedure: Trophozoites were harvested by chilling cultures on ice for 30 minutes and plated by adding 150 μL per well at a concentration of 250,000 cells/mL. Metronidazole (Sigma, St. Louis, MO) was used as a control and was serially diluted 1:2 from 40 μM to 0.04 μM and 150 μL was added to the 150 μL of the G. lamblia trophozoites. Plates were covered in plastic low-evaporation lids, sealed in individual anaerobic BD GasPak Bio-Bags (Becton Dickinson, San Jose, CA) and incubated at 37 °C for 24 hours. […] A duplicate plate was concurrently set up and assayed using a MOXI Z Mini Automated Cell Counter Kit (Orflo, Ketchum, ID). Results obtained from the bioluminescence assay and the MOXI counter data were compared to evaluate their correlation to each another. Albendazole (Sigma, St. Louis, MO), an alternative giardiasis therapeutic, was assayed in concentrations from 4 μM to 0.004 μM with only the luciferase expressing G. lamblia cells. […]

[2] = system: C. parvum (UGA1 Nluc expressing strain in HCT-8 cells); assay: microbe, parasite or virus in culture; type: cell-based, Cryptosporidium parvum; conditions: for Crypto (10 uM) Mean % inhibition: initial Pathogen Box screen, single concentration 10 µM, inhibition compared to DMSO wells; for inhibition at 10 µM: Cryptosporidium parvum, HCT-8, read-out: Crypto (10 uM) Mean % inhibition
Procedure: Growth inhibition and EC50 determination assays were performed using UGA1 Nluc expressing C. parvum strain in HCT-8 cells (ATCC^©, Manassas, VA) as previously described. HCT-8 cells were inoculated onto 96-well plates and allowed to grow for 48 hours to 90–100% confluence and then treated with single concentration (10 μM) or serially diluted compounds prior to oocyst infection. C. parvum oocysts were incubated for 10 minutes in 10% bleach at room temperature and then washed with DPBS. […] The cell monolayers were lysed for 1 hour before adding Nano-Glo® luciferase reagent (Promega, Madison, WI), and measuring relative luminescence units (RLU) in an EnVision Plate Reader (Perkin Elmer, Waltham, MA). Several parameters, including reproducibility and reliability, were previously evaluated to optimize this assay for low and high-throughput (HTP) screening of small molecule compounds against C. parvum. EC50 values were calculated using Prism 7 software (GraphPad Software, San Diego, CA).
C. parvum screening against the Pathogen Box compounds was performed as previously described starting at a concentration of 10 μM [23].

| SMILES | Giardia (16 uM) Mean % inhibition [1] | Crypto (10 uM) Mean % inhibition [2] | G. lamblia inhibition of parasite growth in the initial screen [1] | inhibition at 16 µM [1] | inhibition at 10 µM [2] |
| --- | --- | --- | --- | --- | --- |
| O[C@@H](c1cc(C(F)(F)F)nc2c(C(F)(F)F)cccc12)[C@H]1CCCCN1 [MMV000016] | 16% | 77% |  |  |  |
| COc1cc(N[C@@H](C)CCCN)c2ncccc2c1 [MMV000023] | 47% | 14% |  |  |  |
| N=C(N)c1ccc(OCCCCCOc2ccc(C(=N)N)cc2)cc1 [MMV000062, pentamidine, reference compound] |  |  | did not show up in the screen | 9% | 50% |
| CCN(CC)CCCCCCNc1cc(OC)cc2c(C)ccnc12 [MMV000063] | 26% | 62% |  |  |  |
| O=S(=O)(c1ccc(Cl)cc1)N1CCN(C(=S)NCc2ccco2)CC1 [MMV000858] | 3% | 41% |  |  |  |
| COc1cccc2c(C)nc(N=C(N)N)nc12 [MMV000907] | 68% | 67% |  |  |  |
| CCCS(=O)(=O)N1CCC(CO)(Cc2ccccc2C(F)(F)F)CC1 [MMV001059] | 10% | X* (Mean or standard deviation are negative but not significantly different from the control to be a growth promoter) |  |  |  |
| COC(=O)C1=C(C)NC(C)=C(C(=O)OC(C)C)[C@H]1c1cccc2nonc12 [MMV001493] | 25% | 53% |  |  |  |
| CNCC[C@H](Oc1ccc(C(F)(F)F)cc1)c1ccccc1 [MMV001561] | 15% | X* (Mean or standard deviation are negative but not significantly different from the control to be a growth promoter) |  |  |  |
| NCCC[C@@](N)(C(=O)O)C(F)F [MMV001625] | 16% | 36% |  |  |  |
| O=C(C1CCCCC1)N1CC(=O)N2CCc3ccccc3[C@@H]2C1 [MMV002529] | 16% | 55% |  |  |  |
| CCN(CC)C(=O)N1CCN(C)CC1 [MMV002816] | 29% | X* (Mean or standard deviation are negative but not significantly different from the control to be a growth promoter) |  |  |  |
| COC(=O)Nc1nc2ccc(C(=O)c3ccccc3)cc2[nH]1 [MMV003152, mebendazole, reference compound] |  |  | did not show up in the screen | 26% | 91% |
| CN1CCCN(C(c2ccccc2)c2ccc(Cl)cc2)CC1 (stereo not shown) [MMV004168] | 27% | 56% |  |  |  |
| O=C1Nc2ccc(Br)cc2C12NCCc1c2[nH]c2ccccc12 (stereo not shown) [MMV006239] | X* (Mean or standard deviation are negative but not significantly different from the control to be a growth promoter) | 53% |  |  |  |
| Cc1ccc2[nH]c3c(NCCN(C)C)ncnc3c2c1 [MMV006372] | 21% | 64% |  |  |  |

| SMILES | Giardia (16 uM) Mean % inhibition [1] | Crypto (10 uM) Mean % inhibition [2] | G. lamblia inhibition of parasite growth in the initial screen [1] | inhibition at 16 µM [1] | inhibition at 10 µM [2] |
| --- | --- | --- | --- | --- | --- |
| COc1cc2ncnc(NC3CCN(Cc4ccccc4)CC3)c2cc1OC [MMV006741] | 35% | 45% |  |  |  |
| Cc1cc(Cl)c(S(=O)(=O)N2CCCC2)cc1OCC(=O)NC1CCCCC1 [MMV006833] | 17% | 70% |  |  |  |
| CN(C)c1cc(NC(=O)Nc2ccccc2)c2ccccc2n1 [MMV006901] | 49% | X* (Mean or standard deviation are negative but not significantly different from the control to be a growth promoter) |  |  |  |
| Cc1cc(NC(=O)c2ccc(S(=O)(=O)N(Cc3ccccc3)C(C)C)cc2)no1 [MMV007133] | 11% | X* (Mean or standard deviation are negative but not significantly different from the control to be a growth promoter) |  |  |  |
| COc1cc(OC)cc(C(=O)NCC2Cc3cc(Cl)cc(-c4ccncc4)c3O2)c1 (stereo not shown) [MMV007471] | 23% | 50% |  |  |  |
| Cc1cc(C)n(-c2ccc(NC(=O)C3CCN(Cc4cnc(C)s4)CC3)cc2)n1 [MMV007625] | 27% | X* (Mean or standard deviation are negative but not significantly different from the control to be a growth promoter) |  |  |  |
| CCOc1ccc(-c2nc(NC(=O)CS(=O)(=O)c3ccccc3)sc2C)cc1 [MMV007638] | 8% | X* (Mean or standard deviation are negative but not significantly different from the control to be a growth promoter) |  |  |  |
| O=C(NC1CC1)c1ccc(CSCc2ccccc2Cl)o1 [MMV007803] | 6% | X* (Mean or standard deviation are negative but not significantly different from the control to be a growth promoter) |  |  |  |
| Nc1ccc(C(=O)Nc2ccc(-c3nc4ccccc4o3)cc2)cc1 [MMV007920] | 60% | 63% |  |  |  |
| COc1ccc(CN2CCOc3ccc(C(C)(O)CN(C)C)cc3C2)cc1C (stereo not shown) [MMV008439] | 35% | 68% |  |  |  |
| Cc1cc(C(=O)Nc2cnn(Cc3ccc(Cl)cc3Cl)c2)no1 [MMV009054] | X* (Mean or standard deviation are negative but not significantly different from the control to be a growth promoter) | 59% |  |  |  |
| O=C(C1CCN(c2nnnn2-c2ccccc2)CC1)N1CCc2ccccc2C1 [MMV009135] | X* (Mean or standard deviation are negative but not significantly different from the control to be a growth promoter) | 56% |  |  |  |
| COc1ccc(-c2cnc3ccc(NCc4ccc(S(N)(=O)=O)cc4)nn23)cn1 [MMV010545] | X* (Mean or standard deviation are negative but not significantly different from the control to be a growth promoter) | X* (Mean or standard deviation are negative but not significantly different from the control to be a growth promoter) |  |  |  |
| c1csc(-c2cnc3sc(NCC4CCOCC4)nn23)c1 [MMV010764] | X* (Mean or standard deviation are negative but not significantly different from the control to be a growth promoter) | X* (Mean or standard deviation are negative but not significantly different from the control to be a growth promoter) |  |  |  |
| Cc1cc(Nc2ccc(C(F)(F)F)cc2)n2ccnc2n1 [MMV011229] | 35% | X* (Mean or standard deviation are negative but not significantly different from the control to be a growth promoter) |  |  |  |
